Experiment [1] can be described thus: Inhibitory activity against group II Phospholipase A2 (PLA2) from Vipera russelli russelli venom. Also on record: species or system Daboia russelii russelii.
Experiment [2] in a line: Compound (2.5 uM) was tested for edema inducing activity of group II PLA2 (1 ug) was determined in mice footpads. Format: functional, Daboia russelii russelii.

For the molecule `CCCCc1nc(C2=NOC(CO)C2)c(Cl)[nH]1` (stereo unspecified), the half-maximal inhibitory concentration (IC50) (usually the midpoint of a concentration-inhibition curve) in experiment [1] stood at 152 nM.

In the case of `CCCCc1nc(C2=NOC(CC(=O)OC)C2)c(Cl)[nH]1` (stereo unspecified), in experiment [1], the IC50 came out at 209 nM.

In experiment [1], `CCCCc1nc(C2=NOC(C(=O)OC)C2)c(Cl)[nH]1` (stereo unspecified) registered an IC50 of 250 nM.

As to `CCCCc1nc(C2=NOC(C(=O)Oc3ccccc3)C2)c(Cl)[nH]1` (stereo unspecified), in experiment [1], the half-inhibitory concentration (IC50) was 195 nM.

In the case of `CCCCc1nc(C2=NOC(C#N)C2)c(Cl)[nH]1` (stereo unspecified), in experiment [2], the Edema ratio stood at 120. In experiment [1], this molecule yielded an IC50 of 96.4 nM.

For `CCCCc1nc(C2=NOC(c3ccccc3)C2)c(Cl)[nH]1` (stereo unspecified), the concentration for half-maximal inhibition (IC50) in experiment [1] worked out at 142 nM.

For the molecule `CCCCc1nc(C2=NOC(C(=O)OCC)C2)c(Cl)[nH]1` (stereo unspecified), the Edema ratio in experiment [2] worked out at 116. Moreover, the concentration for half-maximal inhibition (IC50) in experiment [1] is 86.2 nM.

Consider `C[C@H]1[C@H](C)CC[C@]2(C(=O)O)CC[C@]3(C)C(=CC[C@@H]4[C@@]5(C)CC[C@H](O)C(C)(C)[C@@H]5CC[C@]43C)[C@H]12` [URSOLIC ACID], for which the Edema ratio in experiment [2] was 102. Moreover, in experiment [1], the 50% inhibitory concentration (IC50) came out at 2.5 nM.

The values are drawn from ChEMBL document CHEMBL1146794, “Novel delta2-isoxazolines as group II phospholipase A2 inhibitors” (Bioorg Med Chem Lett, 2004).
